Experimental data reported in patent US3930838A, “S-benzyl-N,N-disec-butylthiocarbamate and its use as a rice field herbicide and a rice growth stimulant” (priority 1970, dated 1976).

Columns and labels:
[1] = system: rice; assay: Hothouse test on rice in flooded boxes, 27 days (Example 9a); type: in vivo, rice cv. RIBE
Excerpt: A test was arranged in a hothouse on a set of boxes having a 1,000 cm^2 internal surface. 18 Kg. of sieved rice field earth were put into each box. After leveling, the earth surfaces of each of a set of six boxes were uniformly sprayed with hydroacetone solutions containing, respectively, 0, 0.5, 0.75, 1, 1.25, and 1.5% of M3432. 20 Cc. of solution was sprayed into each box, corresponding to 0, 10, 15, 20, 25, and 30 kg./ha., respectively. Each box was flooded with a 10 cm. water layer measured from the earth surface. The sowing was carried out immediately afterwards with a pre-germinated (cv) RIBE rice seed, employing a quantity of 40 seeds per box.
During the test, the hothouse temperature ranged from +10°to +28°C. 27 Days after the treatment, all the rice plants were recovered from each box and subjected to biometric controls.

[2] = system: grass (Echinocloa spp.); assay: Residual activity, second sowing with grass 24 days after treatment (Example 14); type: in vivo; settings: additional 24 days
Procedure: The same method described in Example 9 was followed, the only variation being in sowing Echinocloa spp. (40 slightly pregerminated seeds per box) instead of rice.
After the Echinocloa spp. plants were killed, a second sowing with grass was carried out in the same boxes, 24 days after the treatment, employing 20 slightly pre-germinated seeds per box.

[3] = system: rice; assay: Stimulating action on rice, general statement; settings: in vivo

CCC(C)N(C(=O)SCc1ccccc1)C(C)CC (stereo not shown) [M3432, S-benzyl-N,N-disec.butylthiocarbamate]
Main root ([1]; 10 kg./ha.): 4.82 cm. | Main root, % of control ([1]; 10 kg./ha.): 150 % of control | Secondary roots ([1]; 10 kg./ha.): 2.82 No. | Secondary roots, % of control ([1]; 10 kg./ha.): 127 % of control | Shoot ([1]; 10 kg./ha.): 11.70 cm. | Shoot, % of control ([1]; 10 kg./ha.): 198 % of control | Sprouted plants ([1]; 10 kg./ha.): 52.5% | Sprouted plants, % of control ([1]; 10 kg./ha.): 131 % of control | Main root ([1]; 15 kg./ha.): 4.06 cm. | Main root, % of control ([1]; 15 kg./ha.): 131 % of control | Secondary roots ([1]; 15 kg./ha.): 2.95 No. | Secondary roots, % of control ([1]; 15 kg./ha.): 133 % of control | Shoot ([1]; 15 kg./ha.): 11.99 cm. | Shoot, % of control ([1]; 15 kg./ha.): 203 % of control | Sprouted plants ([1]; 15 kg./ha.): 57.5% | Sprouted plants, % of control ([1]; 15 kg./ha.): 144 % of control | Main root ([1]; 20 kg./ha.): 8.29 cm. | Main root, % of control ([1]; 20 kg./ha.): 267 % of control | Secondary roots ([1]; 20 kg./ha.): 4.42 No. | Secondary roots, % of control ([1]; 20 kg./ha.): 199 % of control | Shoot ([1]; 20 kg./ha.): 12.15 cm. | Shoot, % of control ([1]; 20 kg./ha.): 205 % of control | Sprouted plants ([1]; 20 kg./ha.): 77.5% | Sprouted plants, % of control ([1]; 20 kg./ha.): 193 % of control | Main root ([1]; 25 kg./ha.): 6.77 cm. | Main root, % of control ([1]; 25 kg./ha.): 218 % of control | Secondary roots ([1]; 25 kg./ha.): 4.66 No. | Secondary roots, % of control ([1]; 25 kg./ha.): 210 % of control | Shoot ([1]; 25 kg./ha.): 16.77 cm. | Shoot, % of control ([1]; 25 kg./ha.): 283 % of control | Sprouted plants ([1]; 25 kg./ha.): 85.0% | Sprouted plants, % of control ([1]; 25 kg./ha.): 212 % of control | Main root ([1]; 30 kg./ha.): 8.84 cm. | Main root, % of control ([1]; 30 kg./ha.): 285 % of control | Secondary roots ([1]; 30 kg./ha.): 4.90 No. | Secondary roots, % of control ([1]; 30 kg./ha.): 220 % of control | Shoot ([1]; 30 kg./ha.): 14.59 cm. | Shoot, % of control ([1]; 30 kg./ha.): 246 % of control | Sprouted plants ([1]; 30 kg./ha.): 87.5% | Sprouted plants, % of control ([1]; 30 kg./ha.): 219 % of control | Shoot ([2]; 2 kg./ha.): 26.5 cm. | Stand ([2]; 2 kg./ha.): 100% | Shoot ([2]; 4 kg./ha.): 27.0 cm. | Stand ([2]; 4 kg./ha.): 65% | Shoot ([2]; 6 kg./ha.): 0 cm. | Stand ([2]; 6 kg./ha.): 0% | Shoot ([2]; 8 kg./ha.): 0 cm. | Stand ([2]; 8 kg./ha.): 0% | Malformations of rice [3]: no malformations are noticed
